According to the NIST ThermoML archive (doi:10.1016/j.jct.2014.08.005):

Assays:
[1] = Liquid, Vibrating tube method
[2] = wn = mass fraction of the nth substance listed; conditions: 101 kPa, Liquid, Vibrating tube method

CC(O)COC(C)COC(C)CO (configuration not stated) [2-[2-(2-hydroxypropoxy)propoxy]-1-propanol]
[1], 101 kPa
Conditions | mass density [kg/m3]
293.15 K | 1017.5
303.15 K | 1009.5
313.15 K | 1001.5
323.15 K | 993.4
333.15 K | 985.2
343.15 K | 976.9

OCCOCCOCCO [triethylene glycol]
[1], 101.33 kPa
Conditions | mass density [kg/m3]
293.15 K | 1124.7
303.15 K | 1117
313.15 K | 1109.2
323.15 K | 1101.5
333.15 K | 1093.7
343.15 K | 1085.9

CC(O)COC(C)COC(C)CO (configuration not stated) [2-[2-(2-hydroxypropoxy)propoxy]-1-propanol] + O
mass density [kg/m3], [2]
Conditions | 293.15 K | 303.15 K | 313.15 K | 323.15 K | 333.15 K | 343.15 K
w1 = 0.2 | 1019.4 | 1015.2 | 1010.2 | 1004.5 | 998.4 | 991.6
w1 = 0.4 | 1037.1 | 1030.1 | 1022.9 | 1015.5 | 1007.7 | 999.6
w1 = 0.6 | 1041.1 | 1033.2 | 1025.2 | 1017.2 | 1008.7 | 1000.2
w1 = 0.8 | 1030.7 | 1023.1 | 1015.4 | 1007.6 | 999.5 | 990.9
w1 = 1 | 1017.5 | 1009.5 | 1001.5 | 993.4 | 985.2 | 976.9
